Ten compounds from US5696140A, “N-cyano-N'-pyridylguanidines as serotonin antagonists” (Leo Pharmaceutical Products Ltd., priority 1992, dated 1997) can be followed below.

Molecules are shown by their SMILES.

Data set [1] has as its system Yoshida sarcoma cells. Kind of data set: survival time of Yoshida tumour-bearing rats (LEW/Mol inbred female rats, oral). It is filed as in vivo, rat. The note with it: untreated 7.5 days. The protocol:
The prolongation of survival time of tumour-bearing rats was studied in LEW/Mol inbred female rats inoculated with Yoshida sarcoma cells (identical to the cells described above) in a number of 2×10^7 cells. Tumour-bearing rats were dosed orally once daily from day 3 after the transfer of tumour cells and until death or until the body-weights had increased by 10% as a consequence of tumour proliferation. The time for death of 50% of the animals was calculated by linear regression analysis.

A short description of data set [2]: cytotoxicity in normal lymphocytes, dye exclusion method. It is filed as cell-based. To be noted: concentration resulting in 50% viability, read-out: Effect on viability of normal cells VC50. The protocol: (§1) The inhibition of tumour cell proliferation was studied using Yoshida sarcoma cells, originally derived from rat hepatic tumours induced by the carcinogen o-aminoazotoluene. The cells were cultured in vitro for 24 hours in the presence of the compound under investigation. DNA synthesis was measured by incorporation of [^3 H]thymidine, and the median inhibitory concentrations (IC50) of the compounds were calculated. The cytotoxicity of the compounds in normal lymphocytes was assessed by the dye exclusion method and expressed as the concentrations resulting in 50% viability (VC50).

In data set [3] the test system is Yoshida sarcoma cells. In words: inhibition of Yoshida sarcoma cell proliferation in vitro ([^3 H]thymidine incorporation, 24 h). The note with it: Rattus norvegicus, read-out: Inhibition of tumour cell proliferation IC50. It is filed as cell-based. The protocol:
as §1
For orientation: Incorporation of labelled thymidine or its analogues reports DNA synthesis.

For data set [4], the system named is human breast cancer (MCF-7). Kind of data set: inhibition of tumour cell proliferation in vitro, MCF-7. Type of data set: cell-based. To be noted: MCF7.
The test system of data set [5] is human small cell lung carcinoma (NYH). Kind of data set: inhibition of tumour cell proliferation in vitro, NYH. It is filed as cell-based.
For data set [6] the test system is unchanged. In words: therapeutic antitumour effect in nude mice carrying a human small cell lung carcinoma (NYH). It is filed as in vivo, human tumour in nude mice. The procedure:
In addition the antitumour effect of the compounds of the present invention was determined in nude mice carrying a human small cell lung carcinoma (NYH).
Nude mice were inoculated subcutaneously with a 0.2 ml NYH cell suspension (5×10^7 cells/ml). Two weeks after inoculum animals were divided in treatment and control groups. All mice were dosed p.o. once daily according to group from day 14 to 28.

For the compound `Sc1ncnc2nc[nH]c12` [6-Mercaptopurine, reference compound], in the data set on Yoshida sarcoma cells [1] (10 mg/kg p.o. once daily), the “Time to 50% of animals dead of cancer” value is on record as 12.2 days.
`O=P1(N(CCCl)CCCl)NCCCO1` (stereo not drawn) [Cyclophosphamide, reference compound]: the “Time to 50% of animals dead of cancer” value in the data set on Yoshida sarcoma cells [1] (0.3 mg/kg p.o. once daily) was 19.1 days.
Consider `N#CN=C(NCCCOc1ccccc1)Nc1ccncc1` [Example No. 5, N-Cyano-N'-(3-phenoxypropyl)-N"-4-pyridylquanidine], for which the CC50 in data set [2] was over 100000 nM. In addition, the “Time to 50% of animals dead of cancer” value is reported as 12.0 days with Yoshida sarcoma cells [1] (10 mg/kg p.o. once daily), 15.5 days with Yoshida sarcoma cells [1] (20 mg/kg p.o. once daily), “a (No rats had died on day 14. Calculation of 50% dead not possible.)” with Yoshida sarcoma cells [1] (50 mg/kg p.o. once daily) and “a (No rats had died on day 14. Calculation of 50% dead not possible.)” in the data set with Yoshida sarcoma cells [1] (100 mg/kg p.o. once daily). The IC50 in the data set with Yoshida sarcoma cells [3] amounted to 3300 nM.
With `N#CN=C(NCCCCOc1ccccc1)Nc1ccncc1` [Example No. 14, N-Cyano-N'-(4-phenoxybutyl)-N"-4-pyridylquanidine], the CC50 in data set [2] turned out to be 100000 nM. Besides, the “Time to 50% of animals dead of cancer” value in the data set with Yoshida sarcoma cells [1] (20 mg/kg p.o. once daily) is on record as 10.8 days. Moreover, the IC50 in the data set with Yoshida sarcoma cells [3] amounted to 170 nM.
As for `N#CN=C(NCCCCCOc1ccccc1)Nc1ccncc1` [Example No. 18, N-Cyano-N'-(5-phenoxypentyl)-N"-4-pyridylquanidine], in data set [2], the CC50 is over 100000 nM. For the same compound, the “Time to 50% of animals dead of cancer” value in the data set on Yoshida sarcoma cells [1] (20 mg/kg p.o. once daily) is on record as 11.0 days. Moreover, the IC50 in the data set with Yoshida sarcoma cells [3] was 750 nM.
Regarding `N#CNC(=Nc1ccncc1)NCCCCCCCOc1ccccc1` [Example No. 33, N-Cyano-N'-(7-phenoxyheptyl)-N"-4-pyridylguanidine], the IC50 in data set [4] amounted to 6.2 nM; in data set [5] it was 0.58 nM.
Consider `N#CN=C(NCCCCCCOc1ccc(Cl)cc1)Nc1ccncc1` [Example No. 43, N-(6-p-Chlorophenoxyhexyl)-N'-cyano-N"-4-pyridylquanidine], for which the IC50 in data set [4] stood at 21 nM; in data set [5], 1.9 nM. Further, the “tumour areas (range)” value in data set [6] (25 mg/kg p.o. once daily day 14 to 28, day 11 (before dosing)) is 12-36 mm^2; in data set [6] (25 mg/kg p.o. once daily day 14 to 28, day 14) it was 23-58 mm^2; in data set [6] (25 mg/kg p.o. once daily day 14 to 28, day 18, p < 0.05 vs untreated or vehicle), 12-59 mm^2; in data set [6] (25 mg/kg p.o. once daily day 14 to 28, day 21, p < 0.05 vs untreated or vehicle), 11-18 mm^2; in data set [6] (25 mg/kg p.o. once daily day 14 to 28, day 25, p < 0.05 vs untreated or vehicle), 4-14 mm^2; in data set [6] (25 mg/kg p.o. once daily day 14 to 28, day 28, p < 0.05 vs untreated or vehicle) it was 0--0 mm^2. For the same compound, the “tumour areas (range)” value is 17-64 mm^2 in data set [6] (50 mg/kg p.o. once daily day 14 to 28, day 11 (before dosing)); 16-131 mm^2 in data set [6] (50 mg/kg p.o. once daily day 14 to 28, day 14); 8-109 mm^2 in data set [6] (50 mg/kg p.o. once daily day 14 to 28, day 18, p < 0.05 vs untreated or vehicle); 6-40 mm^2 in data set [6] (50 mg/kg p.o. once daily day 14 to 28, day 21, p < 0.05 vs untreated or vehicle); 3-27 mm^2 in data set [6] (50 mg/kg p.o. once daily day 14 to 28, day 25, p < 0.05 vs untreated or vehicle); 0--0 mm^2 in data set [6] (50 mg/kg p.o. once daily day 14 to 28, day 28, p < 0.05 vs untreated or vehicle). The Number of tumours in data set [6] (25 mg/kg p.o., day 11 (before dosing)) is listed as 6; in data set [6] (25 mg/kg p.o., day 14), 8; in data set [6] (25 mg/kg p.o., day 18), 8; in data set [6] (25 mg/kg p.o., day 21) it was 5; in data set [6] (25 mg/kg p.o., day 25), 3; in data set [6] (25 mg/kg p.o., day 28) it was 0. The Number of tumours is 6 in data set [6] (50 mg/kg p.o., day 11 (before dosing)); 10 in data set [6] (50 mg/kg p.o., day 14); 10 in data set [6] (50 mg/kg p.o., day 18); 5 in data set [6] (50 mg/kg p.o., day 21); 5 in data set [6] (50 mg/kg p.o., day 25); 0 in data set [6] (50 mg/kg p.o., day 28).
As for `N#CNC(=NCCCCCCOc1cc(Cl)c(Cl)cc1Cl)Nc1ccncc1` [Example No. 52, N-Cyano-N'-4-pyridyl-N"-(6-(2,4,5-trichlorophenoxy)hexyl)guanidine], the IC50 is 4.3 nM in data set [4] and 1.4 nM in data set [5].
For `COc1ccccc1OCCCCCCNC(=NC#N)Nc1ccncc1` [Example No. 53, N-Cyano-N'-(6-o-methoxyphenoxyhexyl)-N"-4-pyridylquanidine], the values for the IC50 in data set [4] and in data set [5] were 0.74 nM and 0.52 nM, respectively.
On to `N#CN=C(NCCCCCCOc1ccccc1Cl)Nc1ccncc1` [Example No. 54, N-(6-o-Chlorophenoxyhexyl)-N'-cyano-N"-4-pyridylquanidine], for which the IC50 in data set [4] worked out at 1.4 nM; in data set [5] it was 0.59 nM.
